Key:
[1] = tested on: T3 breast tumor cells; assay: T3 breast tumor xenograft growth; format: in vivo, NOD/SCID mice
Procedure: In certain embodiments, NOD/SCID mice injected with 50,000 PE13 or T3 breast tumor cells were treated with anti-Notch2/3 antibody 59R1 or control antibody 1B7.11 two days following cell injections. Antibodies were dosed at 10 mg/kg twice week.
In a further experiment, anti-Notch2/3 antibodies were tested for an effect on breast tumor growth. NOD/SCID mice were injected with 50,000 PE13 or T3 breast tumor cells, and tumors were allowed to grow to a size of between 65 to 200 mm^3 after which mice were randomized (n=10 per experimental group), and antibodies administration begun. Animals were treated with 15 mg/kg of either control 1B7.11 antibodies or anti-Notch2/3 59R1 antibodies twice weekly. Tumor size was measured twice weekly, and tumor volume was calculated as described (see Michieli et al., 2004).

[2] = tested on: Colo-205 colon tumor cells; assay: Colo-205 colon tumor xenograft growth; format: in vivo, mice; details: for Colo205 Tumor vol relative to the control group: 15 mg/kg once per week; for growth of Colo205 colon tumors: 15 mg/kg once per week after tumors established
Procedure: In one experiment, the 1×10^7 viable Colo-205 colon tumor cells were injected into 6-8 week-old immunodeficient bg/nu XID female mice on a Swiss CD-1 background. Tumors were allowed to grow to a size of between 65 to 200 mm^3 after which mice were randomized (n=10 per experimental group), and antibodies administration begun. Animals were treated with 15 mg/kg of either control 1B7.11 antibodies or anti-Notch2/3 59R1 antibodies once weekly. Tumor size was measured twice weekly, and tumor volume was calculated as described (see Michieli et al., 2004, Cancer Cell, 6:61-73).
The 59R1 IgG2 antibody was also tested in vivo in the breast tumor xenograft lines OMP-B34, OMP-B39, OMP-B44, PE13, and UM-T1, the pancreas tumor xenograft line OMP-PN8, and the colon tumor xenograft line OMP-C8. These tumor xenograft lines were established by adhering to procedures described in Al-Hajj et al., 2003, Proc. Natl. Acad. Sci. USA, 100:3983-3988. Female NOD/SCID immuno-compromised mice 7-10 weeks old were used for the establishment of the breast tumor xenografts and male NOD/SCID mice were used for the OMP-Pn8 and OMP-C8 tumor-models (Harlan, Indianapolis, Ind.). The 59R1 IgG2 antibody was also tested in vivo in a Colo-205 colon tumor xenograft model. Female immunodeficient bg/nu XID mice on a Swiss CD-1 background were used for the Colo-205 xenograft tumor model. In case of the breast cancer models, slow-releasing estrogen pellets (0.36 mg) had to be implanted. Mice were subcutaneously injected on the right flank with 50,000 (OMP-B34, OMP-B39, OMP-B44, PE13, and UM-T1) or 1×10^7 (Colo-205) viable cells, respectively, in a mixture of PBS (without magnesium or calcium) and Matrigel at a 1:1 ratio. The injected total volume per mouse was 200 μl with 50% being Matrigel. Once the tumor had reached a size between 65-200 mm^3, the mice were randomized. Antibodies were administered weekly and tumors measured twice weekly. LZ1 (a human antibody that recognizes lyzozyme) or 1B711 (a murine IgG1 antibody that recognizes the hapten trinitrophenol) was used as a control antibody for treatment of each tumor type. Tumor volume was calculated as described Al-Hajj et al. (2003). Data are expressed as the mean and the mean±S.E.M. Group means were compared using Student's two-tailed, unpaired t-test. […] All statistical analysis was performed using Microsoft EXCEL and Graph Pad PRISM.
In another embodiment, NOD/SCID mice were injected with Colo205 colon tumor cells. The mice were treated with anti-Notch2/3 antibody 59R1, anti-Notch2/3 antibody 59R5 or control antibody. Antibodies were dosed at 15 mg/kg once per week after tumors had been established.
(§1) Tumor volumes and p values for each experiment are shown relative to the control group. The PE13, C28 and Colo205 studies were carried out as described in Example 14. PN8 studies were carried out as described above. For the PN8 experiment, the control is gemcitabine alone and values for 59R1 and 59R5 are the combinations with gemcitabine. Antibodies were dosed once per week at 15 mg/kg for all experiments.

[3] = tested on: M4 melanoma tumor cells; assay: M4 melanoma xenograft growth; format: in vivo, NOD-SCID mice; details: 10 mg/kg twice per week
Procedure: M4 melanoma tumor cells (10,000 cells per mouse) were injected subcutaneously into the flank region of NOD-SCID mice. Tumors were allowed to grow for 25 days until they had reached an average volume of ˜80 mm^3. Animals were randomized into treatment groups (n=10/group) and treatments were initiated. One group received a control antibody (1B711) at 10 mg/kg twice per week and one group received 59R1 at 10 mg/kg twice per week. Tumor volumes were measured on the indicated days.

[4] = tested on: C28 colon tumor cells; assay: C28 colon tumor xenograft growth; format: in vivo, NOD-SCID mice; details: for C28 Tumor vol relative to the control group / growth of C28 colon tumors: 15 mg/kg once per week; for growth of C28 colon tumors: preventative mode
Procedure: C28 colon tumor cells (10,000 cells per mouse) were injected subcutaneously into the flank region of NOD-SCID mice. Tumors were allowed to grow for 24 days until they had reached an average volume of ˜130 mm^3. Animals were randomized into four treatment groups (n=10/group) and treatments were initiated. One group received a control antibody (1B711) at 10 mg/kg twice per week; one group received irintoecan at 7.5 mg/kg once per week plus the control antibody at 10 mg/kg twice per week; one group received 59R1 at 10 mg/kg twice per week, and the fourth group received the combination of 59R1 at 10 mg/kg twice per week and irinotecan at 7.5 mg/kg once per week. Tumor volumes were measured on the indicated days.
In another embodiment, NOD/SCID mice were injected with C28 colon tumor cells. The mice were treated with anti-Notch2/3 antibody 59R1, anti-Notch2/3 antibody 59R5 or control antibody. Antibodies were dosed at 15 mg/kg once per week in a “preventative” mode where dosing was initiated two days after cell injection.
as §1

[5] = tested on: breast tumor xenograft line OMP-B39; assay: OMP-B39 breast tumor xenograft growth; format: in vivo, NOD/SCID mice; details: established tumors, 15 mg/kg once a week
Procedure: The 59R1 IgG2 antibody was also tested in vivo in the breast tumor xenograft lines OMP-B34, OMP-B39, OMP-B44, PE13, and UM-T1, the pancreas tumor xenograft line OMP-PN8, and the colon tumor xenograft line OMP-C8. These tumor xenograft lines were established by adhering to procedures described in Al-Hajj et al., 2003, Proc. Natl. Acad. Sci. USA, 100:3983-3988. Female NOD/SCID immuno-compromised mice 7-10 weeks old were used for the establishment of the breast tumor xenografts and male NOD/SCID mice were used for the OMP-Pn8 and OMP-C8 tumor-models (Harlan, Indianapolis, Ind.). The 59R1 IgG2 antibody was also tested in vivo in a Colo-205 colon tumor xenograft model. Female immunodeficient bg/nu XID mice on a Swiss CD-1 background were used for the Colo-205 xenograft tumor model. In case of the breast cancer models, slow-releasing estrogen pellets (0.36 mg) had to be implanted. Mice were subcutaneously injected on the right flank with 50,000 (OMP-B34, OMP-B39, OMP-B44, PE13, and UM-T1) or 1×10^7 (Colo-205) viable cells, respectively, in a mixture of PBS (without magnesium or calcium) and Matrigel at a 1:1 ratio. […] Antibodies were administered weekly and tumors measured twice weekly. […] Tumor volume was calculated as described Al-Hajj et al. (2003). Data are expressed as the mean and the mean±S.E.M. Group means were compared using Student's two-tailed, unpaired t-test. […]

[6] = established tumors, 15 mg/kg once a week

Substance: 59R1: human IgG2 antibody binding Notch2 and Notch3; heavy and light chain SEQ ID NO:16 and 18; ATCC PTA-9547
- T3 tumor growth compared to control ([1]; 10 mg/kg twice week, started two days following cell injections): significantly reduced
- T3 tumor growth compared to control ([1]; established tumors, 15 mg/kg twice weekly): significantly reduced
- Colo205 Tumor vol relative to the control group [2]: 0.68
- growth of Colo205 colon tumors [2]: inhibited
- Colo205 tumor growth, combination of 59R1 plus bevacizumab (AVASTIN) versus either alone [2, 6]: even greater inhibition of tumor growth
- Colo205 tumor growth, monotherapy relative to control antibody (LZ1) [2, 6]: significantly inhibited growth
- Colo-205 tumor growth compared to control ([2]; established tumors, 15 mg/kg once weekly, control 1B7.11): significantly reduced
- M4 melanoma tumor growth [3]: inhibited
- C28 Tumor vol relative to the control group [4]: 0.29
- growth of C28 colon tumors [4]: inhibited
- C28 tumor growth, combination of 59R1 and irinotecan relative to the irinotecan group ([4]; 59R1 10 mg/kg twice per week and irinotecan 7.5 mg/kg once per week): inhibited
- C28 tumor growth, 59R1 alone relative to the control antibody group ([4]; established tumors, 10 mg/kg twice per week): inhibited
- B39 breast cancer growth relative to control antibody [5]: inhibit breast cancer growth

Substance: 59R5: human antibody that specifically binds human Notch 2 and human Notch 3; heavy and light chain SEQ ID NO:49 and 18; ATCC PTA-10170
- Colo205 Tumor vol relative to the control group [2]: 0.61
- growth of Colo205 colon tumors [2]: inhibited
- C28 Tumor vol relative to the control group [4]: 0.38
- growth of C28 colon tumors [4]: inhibited

Reference: patent US8226943B2, “Antibodies to notch receptors” (OncoMed Pharmaceuticals, Inc., priority 2008, dated 2012)
